{"source": "patent US20240398768A1", "about": "“METHODS OF TREATING SOLID TUMOR USING HETEROAROMATIC MACROCYCLIC ETHER COMPOUNDS” (Nuvalent, Inc., priority 2021, published 2024)", "key": {"CYP3A4": {"test_system": "CYP3A4", "assay": "CYP induction", "format": "in vitro ADME"}, "[1]": {"test_system": "Ba/F3 CD74-ROS1 G2032R luciferase cells", "assay": "Intracranial Ba/F3 CD74-ROS1 G2032R luciferase model", "format": "in vivo, mice", "conditions": "2 mg/kg, PO, BID", "excerpt": "Ba/F3 CD74-ROS1 G2032R cells were transduced with viral particles containing the firefly luciferase gene and a neomycin-resistance marker. Infected cells were selected on neomycin, and monoclonal cultures were established through limiting dilution. Successful transformants were confirmed by Sanger sequencing and bioluminescence."}, "CYP2C19": {"target": "CYP2C19 (Homo sapiens, UniProt P33261)", "sequence (P33261 whole entry)": "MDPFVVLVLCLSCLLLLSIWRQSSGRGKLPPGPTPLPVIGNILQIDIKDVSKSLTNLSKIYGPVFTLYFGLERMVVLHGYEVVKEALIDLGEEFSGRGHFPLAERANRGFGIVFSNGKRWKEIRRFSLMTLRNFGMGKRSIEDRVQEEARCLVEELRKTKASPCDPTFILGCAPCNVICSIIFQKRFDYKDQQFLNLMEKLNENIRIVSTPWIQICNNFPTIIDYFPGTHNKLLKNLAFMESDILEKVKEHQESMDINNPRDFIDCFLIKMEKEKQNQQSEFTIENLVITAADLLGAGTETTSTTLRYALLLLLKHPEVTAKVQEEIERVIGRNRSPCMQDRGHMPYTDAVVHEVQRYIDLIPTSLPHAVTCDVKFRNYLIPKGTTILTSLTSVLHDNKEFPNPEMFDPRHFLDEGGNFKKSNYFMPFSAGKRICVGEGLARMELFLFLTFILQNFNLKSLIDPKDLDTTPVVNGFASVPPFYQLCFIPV", "assay": "CYP substrate assessment", "format": "in vitro ADME"}, "Ba/F3 CLIP1-LTK": {"target": "T1, Ba/F3 CLIP1-LTK (Homo sapiens, UniProt P29376)", "T1 construct": "expressed in transfected cells; host or cells: Ba/F3 (RIKEN), pMSCV-puro retrovirus; the other entry of the earlier key: CLIP1 (P30622, CAP-Gly domain-containing linker protein 1)", "T1 sequence (P29376 450-864 limits assumed)": "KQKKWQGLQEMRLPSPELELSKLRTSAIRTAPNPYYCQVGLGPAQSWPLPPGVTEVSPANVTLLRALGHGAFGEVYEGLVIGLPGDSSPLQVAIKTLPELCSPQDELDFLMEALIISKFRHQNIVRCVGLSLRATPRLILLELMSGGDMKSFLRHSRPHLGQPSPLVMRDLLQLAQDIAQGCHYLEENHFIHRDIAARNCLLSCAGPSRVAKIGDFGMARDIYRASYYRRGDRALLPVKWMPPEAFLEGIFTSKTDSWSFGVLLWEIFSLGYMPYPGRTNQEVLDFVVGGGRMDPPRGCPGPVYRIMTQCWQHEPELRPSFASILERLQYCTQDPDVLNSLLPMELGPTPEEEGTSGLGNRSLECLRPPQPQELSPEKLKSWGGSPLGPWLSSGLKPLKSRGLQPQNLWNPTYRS", "assay": "Cell viability assay for LTK cell line", "format": "cell-based", "conditions": "72 hours", "protocol": "Generation of Ba/F3 Stable Cell Lines: Genes encoding CLIP1-LTK were synthesized, cloned into the retroviral construct pMSCV-puro (Biovector), and packaged into retroviral particles. The virus was used to infect Ba/F3 cells (RIKEN) at multiplicity of infection=1 or 10 for 1 day. Infected cells were rescued in media (RPMI-1640 with 10% fetal bovine serum and 1% streptomycin and penicillin) supplemented with mouse IL-3 (10 ng/mL) for 2 days, and stable cell lines were selected by IL-3 withdrawal and puromycin (0.8 μg/mL) for 7 days. Transformation of desired genes was confirmed by Sanger sequencing and western blot.\nCell Proliferation Assay: Stable cells were plated at 1,000 cells/well (40 μL) in a 384-well plate for 1 day. Test compounds (40 nL) were then added in a 3-fold dilution series using the TECAN EVO200 liquid handler and incubated for 72 hours. Plates were equilibrated at room temperature for 15 minutes followed by addition of 40 μL CellTiter-Glo reagent (Promega). Luminescence was measured on a plate reader. Half-maximal inhibitory concentration (IC50) was calculated from percent inhibition and inhibitor concentration using four-parameter logistic regression."}, "CYP2C8": {"target": "T2, CYP2C8 (Homo sapiens, UniProt P10632)", "T2 sequence (P10632 1-490)": "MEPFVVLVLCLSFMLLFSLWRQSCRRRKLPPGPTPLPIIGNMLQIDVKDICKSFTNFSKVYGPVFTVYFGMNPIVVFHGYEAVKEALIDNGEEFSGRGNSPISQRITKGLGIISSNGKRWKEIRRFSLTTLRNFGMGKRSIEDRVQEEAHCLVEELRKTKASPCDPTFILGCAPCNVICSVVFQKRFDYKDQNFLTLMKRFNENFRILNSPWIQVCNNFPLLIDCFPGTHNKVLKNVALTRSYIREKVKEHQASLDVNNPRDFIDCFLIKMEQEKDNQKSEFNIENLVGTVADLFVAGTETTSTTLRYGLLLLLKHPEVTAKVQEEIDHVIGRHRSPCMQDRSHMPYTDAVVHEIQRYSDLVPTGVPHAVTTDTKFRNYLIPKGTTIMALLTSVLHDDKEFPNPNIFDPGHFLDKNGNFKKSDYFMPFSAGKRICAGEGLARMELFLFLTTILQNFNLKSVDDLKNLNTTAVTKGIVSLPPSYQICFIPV", "assay": "CYP inhibition", "format": "in vitro ADME"}, "CYP2C9": {"target": "CYP2C9 (Homo sapiens, UniProt P11712)", "sequence (P11712 whole entry)": "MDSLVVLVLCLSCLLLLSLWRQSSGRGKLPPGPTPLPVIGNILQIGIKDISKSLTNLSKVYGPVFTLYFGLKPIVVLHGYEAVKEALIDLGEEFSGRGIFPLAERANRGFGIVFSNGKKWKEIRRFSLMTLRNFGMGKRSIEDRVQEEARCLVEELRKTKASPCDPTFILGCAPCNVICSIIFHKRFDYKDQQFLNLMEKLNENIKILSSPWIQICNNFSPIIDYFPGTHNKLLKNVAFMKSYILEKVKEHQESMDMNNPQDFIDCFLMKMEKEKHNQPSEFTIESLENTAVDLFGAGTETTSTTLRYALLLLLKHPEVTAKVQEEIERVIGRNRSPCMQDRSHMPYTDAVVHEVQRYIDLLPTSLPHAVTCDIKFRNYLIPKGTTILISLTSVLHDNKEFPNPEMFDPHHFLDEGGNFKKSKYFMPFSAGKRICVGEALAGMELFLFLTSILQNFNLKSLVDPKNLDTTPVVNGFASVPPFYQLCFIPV", "assay": "CYP substrate assessment", "format": "in vitro ADME"}, "CYP1A2": {"target": "T3, CYP1A2 (Homo sapiens, UniProt P05177)", "T3 sequence (P05177 1-516)": "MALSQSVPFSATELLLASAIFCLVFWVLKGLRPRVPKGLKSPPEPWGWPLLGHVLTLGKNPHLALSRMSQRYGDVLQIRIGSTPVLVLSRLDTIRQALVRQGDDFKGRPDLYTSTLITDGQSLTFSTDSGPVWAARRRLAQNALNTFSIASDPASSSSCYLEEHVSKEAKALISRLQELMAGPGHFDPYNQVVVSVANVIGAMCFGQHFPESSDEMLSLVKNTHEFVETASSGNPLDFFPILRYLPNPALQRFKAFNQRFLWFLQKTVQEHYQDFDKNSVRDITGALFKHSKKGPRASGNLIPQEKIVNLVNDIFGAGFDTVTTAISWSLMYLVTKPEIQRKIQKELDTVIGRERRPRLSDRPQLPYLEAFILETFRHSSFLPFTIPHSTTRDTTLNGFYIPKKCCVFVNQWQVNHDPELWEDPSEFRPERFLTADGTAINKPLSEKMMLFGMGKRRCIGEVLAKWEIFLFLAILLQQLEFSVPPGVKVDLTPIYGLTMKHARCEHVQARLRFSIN", "assay": "CYP inhibition", "format": "in vitro ADME"}, "CYP2B6": {"target": "T4, CYP2B6 (Homo sapiens, UniProt P20813)", "T4 sequence (P20813 1-491)": "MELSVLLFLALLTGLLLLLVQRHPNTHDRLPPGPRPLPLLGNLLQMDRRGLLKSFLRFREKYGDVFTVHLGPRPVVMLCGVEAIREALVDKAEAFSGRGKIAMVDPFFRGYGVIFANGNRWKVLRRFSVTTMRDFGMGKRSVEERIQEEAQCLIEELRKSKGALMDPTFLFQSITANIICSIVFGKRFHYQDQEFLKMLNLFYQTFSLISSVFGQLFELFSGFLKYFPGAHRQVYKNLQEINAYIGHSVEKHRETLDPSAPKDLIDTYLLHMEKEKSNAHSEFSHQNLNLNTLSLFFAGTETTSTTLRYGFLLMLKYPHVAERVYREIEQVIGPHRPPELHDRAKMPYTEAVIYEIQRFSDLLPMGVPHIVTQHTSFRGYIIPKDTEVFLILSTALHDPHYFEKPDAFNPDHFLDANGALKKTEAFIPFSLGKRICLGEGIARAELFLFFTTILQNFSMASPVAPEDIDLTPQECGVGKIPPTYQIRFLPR", "assay": "CYP substrate assessment", "format": "in vitro ADME"}, "CYP2D6": {"target": "CYP2D6 (Homo sapiens, UniProt P10635)", "sequence (P10635 whole entry)": "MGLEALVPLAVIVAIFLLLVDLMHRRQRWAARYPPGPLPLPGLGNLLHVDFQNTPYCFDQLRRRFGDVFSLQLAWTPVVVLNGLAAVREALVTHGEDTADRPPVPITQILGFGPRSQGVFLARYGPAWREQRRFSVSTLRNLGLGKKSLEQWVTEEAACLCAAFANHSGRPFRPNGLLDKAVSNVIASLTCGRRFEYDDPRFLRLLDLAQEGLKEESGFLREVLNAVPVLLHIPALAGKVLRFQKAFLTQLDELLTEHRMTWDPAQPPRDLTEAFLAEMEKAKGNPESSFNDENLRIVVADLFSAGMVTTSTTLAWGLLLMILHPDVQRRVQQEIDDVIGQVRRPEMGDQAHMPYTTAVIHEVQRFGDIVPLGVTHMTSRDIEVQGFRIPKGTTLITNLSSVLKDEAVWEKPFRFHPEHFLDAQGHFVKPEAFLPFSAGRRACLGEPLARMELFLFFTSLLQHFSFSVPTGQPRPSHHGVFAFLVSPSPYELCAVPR", "assay": "CYP inhibition", "format": "in vitro ADME"}, "[2]": {"test_system": "NIH3T3 cells expressing ROS1 fusions with G2032R", "assay": "Anchorage-independent colony formation assay", "format": "cell-based", "conditions": "at 100 nM", "protocol": "Each inhibitor was paired with its own DMSO condition to serve as an accurate control. NIH3T3 cells expressing CD74-ROS1 or EZR-ROS1 wild-type or mutant fusions were plated in 0.4% agarose in complete medium at a density of 2,000 cells per 0.5 mL of agarose with DMSO or inhibitor at identical concentration to the bottom layer. Plates were incubated for 4 weeks, and each well was fed 3× per week with 75 μL of complete medium with or without inhibitor to match each plated condition to prevent drying of the agarose. Plates were read after 3 and 4 weeks using a GelCount™ (Oxford Optronix). Colony counts were averaged by condition and normalized to the colony counts from paired DMSO conditions. Data analysis and visualization was performed using Microsoft Excel and GraphPad Prism."}}}
{"compound": "CCn1ncc2c1-c1cnc(N)c(c1)O[C@H](C)c1cc(F)ccc1-c1nn(C)nc1C2", "note": "[Compound 1, (19R)-3-ethyl-16-fluoro-10,19-dimethyl-20-oxa-3,4,9,10,11,23-hexaazapentacyclo [19.3.1.0^2,^6.0^8,^12.0^13,^18]pentacosa-1 (24),2 (6),4,8,11,13,15,17,21 (25),22-decaen-22-amine]", "values": [{"measurement": "inducer of CYP3A4", "setting": "CYP3A4", "result": "potential inducer"}, {"measurement": "body weight", "setting": "[1]", "result": "no significant changes"}, {"measurement": "median overall survival (mOS)", "setting": "[1]", "result": "> 61", "unit": "days"}, {"measurement": "survival extension over vehicle treatment", "setting": "[1]", "result": "> 4", "unit": "fold"}, {"measurement": "substrate for CYP2C19", "setting": "CYP2C19", "result": "not considered a substrate"}, {"measurement": "IC50", "setting": "Ba/F3 CLIP1-LTK", "result": 0.00957, "unit": "µM"}, {"measurement": "IC50", "setting": "CYP2C8", "result": 70, "unit": "µM"}, {"measurement": "substrate for CYP2C9", "setting": "CYP2C9", "result": "not considered a substrate"}, {"measurement": "IC50", "setting": "CYP1A2", "result": "> 100", "unit": "µM"}, {"measurement": "substrate for CYP2B6", "setting": "CYP2B6", "result": "not considered a substrate"}, {"measurement": "IC50", "setting": "CYP2D6", "result": "> 100", "unit": "µM"}, {"measurement": "inhibition of colony formation", "setting": "[2]", "result": "> 90", "unit": "%"}]}
